Results from the supplement of paper PMC8671470.

Key:
Settings in all cases: 72 h
MOLM-13 [1] = system: MOLM-13
Summary of the method: (§1)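 In 384-well plates holding acoustically pre-printed compounds at five tenfold doses from 1 to 10,000 nM, in duplicate, fifteen myeloid leukaemia cell lines were grown in RPMI 1640 for 72 h at 37 °C with 5% CO2. Luminescent ATP viability was scaled between vehicle and a positive control at 10 µM. The IC50 was then taken from log-logistic dose–response fits with four parameters.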

BV-173 [2] = system: BV-173
Summary of the method: as §1

ML-2 [3] = system: ML-2
Summary of the method: as §1

KU-812 [4] = system: KU-812
Summary of the method: as §1

KCL-22 [5] = system: KCL-22
Summary of the method: as §1

KG-1 [6] = system: KG-1
Summary of the method: as §1

HEL = system: HEL
Summary of the method: as §1

LAMA-84 [7] = system: LAMA-84
Summary of the method: as §1

Mono-Mac-6 = system: Mono-Mac-6
Summary of the method: as §1

K-562 [8] = system: K-562
Summary of the method: as §1

THP-1 [9] = system: THP-1
Summary of the method: as §1

NOMO-1 [10] = system: NOMO-1
Summary of the method: as §1

MV4-11 [11] = system: MV4-11
Summary of the method: as §1

SHI-1 = system: SHI-1
Summary of the method: as §1

HL-60 [12] = system: HL-60
Summary of the method: as §1

HL-60 [13] = assay: cell viability (% survival relative to DMSO control); higher = less cytotoxic
Summary of the method: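 Four-parameter log-logistic fits in drc and PharmacoGx supplied area under the curve where it is given. Underlying viability came from CellTiter-Glo, normalised to DMSO and proteasome-inhibitor wells, with the proteasome inhibitor at 10 μM. HL-60 cells in RPMI 1640 plus 10% FBS had been rescreened against the full library at five tenfold concentrations of 1–10,000 nM, in duplicate on 384-well plates, with DMSO or 100 nM of one of three metabolic inhibitors, for 72 h at 37 °C, 5% CO2.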

MOLM-13 [14] = assay: cell viability (% survival relative to DMSO control, bortezomib = 0%); higher = less cytotoxic
Summary of the method: (§2)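 After 72 h at 37 °C with 5% CO2, cell viability in 384-well plates was measured by CellTiter-Glo luminescence. The plates held compounds pre-printed at 1, 10, 100, 1000 or 10000 nM in duplicate, and cells from 10 AML and 5 CML lines seeded at densities titrated to linear growth. Percent survival is the duplicate mean, normalised to vehicle as 100% and a 10 µM positive control as 0%.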

BV-173 [15] = assay: as above
Summary of the method: as §2

ML-2 [16] = assay: as above
Summary of the method: as §2

KU-812 [17] = assay: as above
Summary of the method: as §2

KCL-22 [18] = assay: as above
Summary of the method: as §2

KG-1 [19] = assay: as above
Summary of the method: as §2

LAMA-84 [20] = assay: as above
Summary of the method: as §2

K-562 [21] = assay: as above
Summary of the method: as §2

THP-1 [22] = assay: as above
Summary of the method: as §2

NOMO-1 [23] = assay: as above
Summary of the method: as §2

MV4-11 [24] = assay: as above
Summary of the method: as §2

HL-60 [25] = assay: as above
Summary of the method: as §2

N#CC(C#N)=NNc1ccc(OC(F)(F)F)cc1 [FCCP]
Settings	IC50 (cell viability) [µM]
BV-173 [2]	2.05
HEL	1.96
HL-60 [12]	2.66
K-562 [8]	1.73
KCL-22 [5]	1.82
KG-1 [6]	2.34
KU-812 [4]	1.39
LAMA-84 [7]	2.01
ML-2 [3]	2.09
MOLM-13 [1]	2.11
MV4-11 [11]	2.44
Mono-Mac-6	2.38
NOMO-1 [10]	3.01
SHI-1	4.02
THP-1 [9]	3.77

cell viability [%], HL-60 [13]
Settings	0.001 µM	0.01 µM	0.1 µM	1 µM	10 µM
co-treatment: AZD3965 100 nM	101	102	82.8	110	8.55
co-treatment: DMSO vehicle	99.6	94.6	99.9	104	10.3
co-treatment: GSK2194069 100 nM	97.2	102	80.2	102.3	13.8
co-treatment: pictilisib 100 nM	98.3	98.5	94.6	104	9.69

cell viability [%]
Settings	1 nM	10 nM	100 nM	1000 nM	10000 nM
BV-173 [15]	119	94.9	96.7	82	-0.482
HL-60 [25]	88.2	92.4	109	88.5	0.501
K-562 [21]	109	93.4	92.1	74	1.97
KCL-22 [18]	110	83.6	85.8	68.3	4.51
KG-1 [19]	101	101	94.7	80.8	7.07
KU-812 [17]	108	98	92.4	65.7	0.082
LAMA-84 [20]	100	97.6	94.2	79.1	0.398
ML-2 [16]	104	96.5	105	82.3	0.124
MOLM-13 [14]	121	92.6	99.3	82.7	0.459
MV4-11 [24]	104	101	98.9	88.5	-1.01
NOMO-1 [23]	100	105	102	93.5	4.3
THP-1 [22]	104	94.3	102	102	7.73

CCCc1cc(-c2nc(-c3ccc(C)cc3)cs2)ccn1 [Fatostatin]
Settings	IC50 (cell viability) [µM]
BV-173 [2]	6.07
HEL	> 10
HL-60 [12]	8.84
K-562 [8]	> 10
KCL-22 [5]	> 10
KG-1 [6]	2.76
KU-812 [4]	> 10
LAMA-84 [7]	> 10
ML-2 [3]	6.69
MOLM-13 [1]	> 10
MV4-11 [11]	> 10
Mono-Mac-6	> 10
NOMO-1 [10]	> 10
SHI-1	4.85
THP-1 [9]	> 10

cell viability [%], HL-60 [13]
Settings	0.001 µM	0.01 µM	0.1 µM	1 µM	10 µM
co-treatment: AZD3965 100 nM	75.1	101.7	102	103	79.9
co-treatment: DMSO vehicle	92.9	96.1	101	98.5	94.39
co-treatment: GSK2194069 100 nM	95.9	94.22	96.1	92.5	70.7
co-treatment: pictilisib 100 nM	90.3	97.8	105	96.7	63.5

cell viability [%]
Settings	1 nM	10 nM	100 nM	1000 nM	10000 nM
BV-173 [15]	90.6	98.4	94.9	112	24.8
HL-60 [25]	110	84.6	95.5	105	43.1
K-562 [21]	103	95.9	102	117	60.2
KCL-22 [18]	98.3	86.2	92.5	113	55.3
KG-1 [19]	102	99.8	106	90.3	23.1
KU-812 [17]	100	101	87.2	106	74.1
LAMA-84 [20]	105	92.2	104	109	79.8
ML-2 [16]	93.4	101	92	111	29.5
MOLM-13 [14]	89.2	78.1	106	108	104
MV4-11 [24]	105	95.9	93.2	98.2	65.7
NOMO-1 [23]	98.3	91.3	104	111	97.4
THP-1 [22]	95.2	90.1	108	98.5	81.1
